# Experimental data reported in PMC5218480 (PLoS ONE, 2017).
# System: MV-4-11 cells
# Assay: Gene expression microarray analysis (Affymetrix PrimeView) and GSEA
# Type: cell-based, human
# Design: RFU PODN (11730768_x_at) / Fold change /veh PODN (11730768_x_at) / RFU LINC00158 (11744669_a_at) / Fold change /veh LINC00158 (11744669_a_at) / RFU DUSP10 (11751237_a_at) / Fold change /veh DUSP10 (11751237_a_at) / RFU ID3 (11757404_x_at) / Fold change /veh ID3 (11757404_x_at) / RFU PLEKHG5 (11737974_s_at) / Fold change /veh PLEKHG5 (11737974_s_at) / RFU LRRC4B (11730491_at) / Fold change /veh LRRC4B (11730491_at) / RFU GIMAP4 (11747438_a_at) / Fold change /veh GIMAP4 (11747438_a_at) / RFU KRT8 (11758183_x_at) / Fold change /veh KRT8 (11758183_x_at) / RFU CNN1 (11734310_a_at) / Fold change /veh CNN1 (11734310_a_at) / RFU VPS37D (11726825_at) / Fold change /veh VPS37D (11726825_at) / RFU C10orf10 (11716522_x_at) / Fold change /veh C10orf10 (11716522_x_at) / RFU KIR2DL2 /// KIR2DL4 /// KIR2DL5A /// KIR2DL5B /// KIR2DS1 /// KIR2DS2 /// KIR2DS3 /// KIR2DS4 /// KIR3DL3 /// KIR3DL3 /// KIR3DS1 (11738374_at) / Fold change /veh KIR2DL2 /// KIR2DL4 /// KIR2DL5A /// KIR2DL5B /// KIR2DS1 /// KIR2DS2 /// KIR2DS3 /// KIR2DS4 /// KIR3DL3 /// KIR3DL3 /// KIR3DS1 (11738374_at) / RFU C1QL1 (11718748_at) / Fold change /veh C1QL1 (11718748_at) / RFU TMPRSS4 (11747572_a_at) / Fold change /veh TMPRSS4 (11747572_a_at) / RFU HAMP (11756126_x_at) / Fold change /veh HAMP (11756126_x_at) / RFU RNFT2 (11725882_a_at) / Fold change /veh RNFT2 (11725882_a_at) / RFU NR4A2 (11747474_a_at) / Fold change /veh NR4A2 (11747474_a_at) / RFU ABCC12 (11746883_a_at) / Fold change /veh ABCC12 (11746883_a_at) / RFU TMEM136 (11760407_x_at) / Fold change /veh TMEM136 (11760407_x_at) / RFU CLDN22 /// WWC2 (11732394_at) / Fold change /veh CLDN22 /// WWC2 (11732394_at) / RFU HLA-DPB1 (11760878_x_at) / Fold change /veh HLA-DPB1 (11760878_x_at) / RFU SPINT1 (11716480_a_at) / Fold change /veh SPINT1 (11716480_a_at) / RFU GAP43 (11754022_s_at) / Fold change /veh GAP43 (11754022_s_at) / RFU A4GNT (11735810_at) / Fold change /veh A4GNT (11735810_at) / RFU PRB3 (11715151_x_at) / Fold change /veh PRB3 (11715151_x_at) / RFU TUBB4B (11761932_at) / Fold change /veh TUBB4B (11761932_at) / RFU CAPN14 (11732068_a_at) / Fold change /veh CAPN14 (11732068_a_at) / RFU TMCC2 (11721928_a_at) / Fold change /veh TMCC2 (11721928_a_at) / RFU IRGQ (11745062_a_at) / Fold change /veh IRGQ (11745062_a_at) / RFU FAM174B (11720279_a_at) / Fold change /veh FAM174B (11720279_a_at) / RFU TMPRSS4 (11748680_a_at) / Fold change /veh TMPRSS4 (11748680_a_at) / RFU FAM212B (11763350_a_at) / Fold change /veh FAM212B (11763350_a_at) / RFU PLEKHG5 (11743358_a_at) / Fold change /veh PLEKHG5 (11743358_a_at) / RFU ZSCAN30 (11745921_a_at) / Fold change /veh ZSCAN30 (11745921_a_at) / RFU CMKLR1 (11741424_a_at) / Fold change /veh CMKLR1 (11741424_a_at) / RFU LOC101060620 /// MAPK8IP1 (11723275_at) / Fold change /veh LOC101060620 /// MAPK8IP1 (11723275_at) / RFU SPTSSB (11747773_x_at) / Fold change /veh SPTSSB (11747773_x_at) / RFU PRSS12 (11739890_at) / Fold change /veh PRSS12 (11739890_at) / RFU BIN1 (11741810_x_at) / Fold change /veh BIN1 (11741810_x_at) / RFU WNT11 (11732464_a_at) / Fold change /veh WNT11 (11732464_a_at) / RFU C10orf10 (11716521_a_at) / Fold change /veh C10orf10 (11716521_a_at) / RFU C5orf56 (11738089_at) / Fold change /veh C5orf56 (11738089_at) / RFU CYB561 (11721691_x_at) / Fold change /veh CYB561 (11721691_x_at) / RFU ANKRD19P (11752326_a_at) / Fold change /veh ANKRD19P (11752326_a_at) / RFU OR2T12 /// OR2T33 /// OR2T8 (11738714_s_at) / Fold change /veh OR2T12 /// OR2T33 /// OR2T8 (11738714_s_at) / RFU VCAN (11748164_a_at) / Fold change /veh VCAN (11748164_a_at) / RFU JSRP1 (11732532_at) / Fold change /veh JSRP1 (11732532_at) / RFU KRTAP10-11 (11738290_x_at) / Fold change /veh KRTAP10-11 (11738290_x_at) / RFU MYO3A (11730013_a_at) / Fold change /veh MYO3A (11730013_a_at) / RFU EBF3 (11725865_a_at) / Fold change /veh EBF3 (11725865_a_at) / RFU CAMK2N1 (11719241_x_at) / Fold change /veh CAMK2N1 (11719241_x_at) / RFU C5orf56 (11738088_a_at) / Fold change /veh C5orf56 (11738088_a_at) / RFU OLFML3 (11715873_a_at) / Fold change /veh OLFML3 (11715873_a_at) / RFU LOC100653217 /// NTM (11731650_a_at) / Fold change /veh LOC100653217 /// NTM (11731650_a_at) / RFU MAPK11 (11762145_a_at) / Fold change /veh MAPK11 (11762145_a_at) / RFU FIZ1 (11724087_x_at) / Fold change /veh FIZ1 (11724087_x_at) / RFU OASL (11726364_x_at) / Fold change /veh OASL (11726364_x_at) / RFU SOX15 (11748057_x_at) / Fold change /veh SOX15 (11748057_x_at) / RFU CD79A (11719716_a_at) / Fold change /veh CD79A (11719716_a_at) / RFU HIST1H1D (11736915_at) / Fold change /veh HIST1H1D (11736915_at) / RFU CASKIN2 (11723855_a_at) / Fold change /veh CASKIN2 (11723855_a_at) / RFU LOC730098 (11760151_x_at) / Fold change /veh LOC730098 (11760151_x_at) / RFU OR4N2 (11742367_at) / Fold change /veh OR4N2 (11742367_at) / RFU PRRT2 (11749266_a_at) / Fold change /veh PRRT2 (11749266_a_at) / RFU SNX32 (11753110_a_at) / Fold change /veh SNX32 (11753110_a_at) / RFU CDHR5 (11726645_a_at) / Fold change /veh CDHR5 (11726645_a_at) / RFU RCAN1 (11760418_a_at) / Fold change /veh RCAN1 (11760418_a_at) / RFU FAM167A (11723789_a_at) / Fold change /veh FAM167A (11723789_a_at) / RFU FAM26E (11764081_at) / Fold change /veh FAM26E (11764081_at) / RFU ISYNA1 (11749810_s_at) / Fold change /veh ISYNA1 (11749810_s_at) / RFU ACY1 (11761880_at) / Fold change /veh ACY1 (11761880_at) / RFU 11764098_at / Fold change /veh 11764098_at / RFU SAMD14 (11745864_x_at) / Fold change /veh SAMD14 (11745864_x_at) / RFU NPB (11741838_a_at) / Fold change /veh NPB (11741838_a_at) / RFU TMPRSS6 (11731388_a_at) / Fold change /veh TMPRSS6 (11731388_a_at) / RFU KRTAP10-2 (11738614_at) / Fold change /veh KRTAP10-2 (11738614_at) / RFU ARHGAP8 /// PRR5-ARHGAP8 (11727945_x_at) / Fold change /veh ARHGAP8 /// PRR5-ARHGAP8 (11727945_x_at) / RFU KRTAP5-7 /// NADSYN1 (11734609_at) / Fold change /veh KRTAP5-7 /// NADSYN1 (11734609_at) / RFU RASL12 (11751679_a_at) / Fold change /veh RASL12 (11751679_a_at) / RFU CDKN2B (11736163_a_at) / Fold change /veh CDKN2B (11736163_a_at) / RFU PRF1 (11729649_at) / Fold change /veh PRF1 (11729649_at) / RFU, ZNF638 /// ZNF638-IT1 / Fold change vs veh, ZNF638 /// ZNF638-IT1 / RFU, PANK3 / Fold change vs veh, PANK3 / RFU, SH3YL1 / Fold change vs veh, SH3YL1 / RFU, ZEB2 / Fold change vs veh, ZEB2 / RFU, NRIP1 / Fold change vs veh, NRIP1 / RFU, PTTG1IP / Fold change vs veh, PTTG1IP / RFU, CAPN2 / Fold change vs veh, CAPN2 / RFU, MED14 / Fold change vs veh, MED14 / RFU, SNORA58 / Fold change vs veh, SNORA58 / RFU, C1orf63 / Fold change vs veh, C1orf63 / RFU, LRRFIP1 / Fold change vs veh, LRRFIP1 / RFU, NDUFAF7 / Fold change vs veh, NDUFAF7 / RFU, SLC12A2 / Fold change vs veh, SLC12A2 / RFU, IBTK / Fold change vs veh, IBTK / RFU, ESF1 / Fold change vs veh, ESF1 / Fold change vs veh, TMEM50B / RFU, TAOK1 / Fold change vs veh, TAOK1 / RFU, ACBD3 / Fold change vs veh, ACBD3 / RFU, TMA16 / Fold change vs veh, TMA16 / RFU, RWDD3 / Fold change vs veh, RWDD3 / RFU, BCAT1 / Fold change vs veh, BCAT1 / RFU, EDEM3 / Fold change vs veh, EDEM3 / RFU, TMEM33 / Fold change vs veh, TMEM33 / RFU, WDR75 / Fold change vs veh, WDR75 / RFU, AHCTF1 / Fold change vs veh, AHCTF1 / RFU, TFRC / Fold change vs veh, TFRC / RFU, ZDHHC17 / Fold change vs veh, ZDHHC17 / RFU, NOM1 / Fold change vs veh, NOM1 / RFU, ARL8B / Fold change vs veh, ARL8B / RFU, ZBTB11 / Fold change vs veh, ZBTB11 / RFU, TAMM41 / Fold change vs veh, TAMM41 / RFU, KIAA1704 /// LOC100996395 / Fold change vs veh, KIAA1704 /// LOC100996395 / RFU, ING1 / Fold change vs veh, ING1 / RFU, TRMT61B / Fold change vs veh, TRMT61B / RFU, FUBP3 / Fold change vs veh, FUBP3 / RFU, TP53 / Fold change vs veh, TP53 / RFU, TNKS2 / Fold change vs veh, TNKS2 / RFU, ZFP14 / Fold change vs veh, ZFP14 / RFU, ACTR2 / Fold change vs veh, ACTR2 / RFU, PPP3R1 / Fold change vs veh, PPP3R1 / RFU, PIK3R1 / Fold change vs veh, PIK3R1 / RFU, HNRNPA1 / Fold change vs veh, HNRNPA1 / RFU, RNF170 / Fold change vs veh, RNF170 / RFU, ZNF28 / Fold change vs veh, ZNF28 / RFU, RNGTT / Fold change vs veh, RNGTT / RFU, OGT / Fold change vs veh, OGT / RFU, BRD1 / Fold change vs veh, BRD1 / RFU, MARS / Fold change vs veh, MARS / RFU, ZNF655 / Fold change vs veh, ZNF655 / RFU, FAHD1 / Fold change vs veh, FAHD1 / RFU, BDP1 / Fold change vs veh, BDP1 / RFU, LRRCC1 / Fold change vs veh, LRRCC1 / RFU, ARID1A / Fold change vs veh, ARID1A / RFU, ZNF146 / Fold change vs veh, ZNF146 / RFU, ZNF330 / Fold change vs veh, ZNF330 / RFU, GPN3 / Fold change vs veh, GPN3 / RFU, C9orf123 / Fold change vs veh, C9orf123 / RFU, N4BP2L2 / Fold change vs veh, N4BP2L2 / RFU, ARFIP1 / Fold change vs veh, ARFIP1 / RFU, FAM179B / Fold change vs veh, FAM179B / RFU, BCL10 / Fold change vs veh, BCL10 / RFU, UHRF1BP1L / Fold change vs veh, UHRF1BP1L / RFU, BET1 / Fold change vs veh, BET1 / RFU, CNOT2 / Fold change vs veh, CNOT2 / RFU, ZNF268 / Fold change vs veh, ZNF268 / Fold change vs veh, ZNF507 / RFU, DGCR2 / Fold change vs veh, DGCR2 / RFU, WDSUB1 / Fold change vs veh, WDSUB1 / Fold change vs veh, HSP90B1 /// MIR3652 / RFU, ADSS / Fold change vs veh, ADSS / RFU, GK / Fold change vs veh, GK / RFU, ZNF148 / Fold change vs veh, ZNF148 / RFU, TAF9 / Fold change vs veh, TAF9 / RFU, SLC1A5 / Fold change vs veh, SLC1A5 / RFU, SLMO2 / Fold change vs veh, SLMO2 / RFU, ABCC4 / Fold change vs veh, ABCC4 / RFU, LOC101060439 /// RAP1B / Fold change vs veh, LOC101060439 /// RAP1B / RFU, RFX7 / Fold change vs veh, RFX7 / RFU, GTPBP10 / Fold change vs veh, GTPBP10 / RFU, CNEP1R1 / Fold change vs veh, CNEP1R1 / RFU, BIVM-ERCC5 /// ERCC5 / Fold change vs veh, BIVM-ERCC5 /// ERCC5 / RFU, ILF3 / Fold change vs veh, ILF3 / RFU 11762660_at / Fold change /veh 11762660_at / RFU VCAN (11757783_s_at) / Fold change /veh VCAN (11757783_s_at) / RFU DDX43 (11728927_at) / Fold change /veh DDX43 (11728927_at) / RFU KRT8 (11758188_x_at) / Fold change /veh KRT8 (11758188_x_at) / RFU NKD1 (11759106_at) / Fold change /veh NKD1 (11759106_at) / RFU SRD5A1 (11742802_a_at) / Fold change /veh SRD5A1 (11742802_a_at) / RFU TPSAB1 /// TPSB2 (11721975_s_at) / Fold change /veh TPSAB1 /// TPSB2 (11721975_s_at) / RFU GSTM3 (11746129_a_at) / Fold change /veh GSTM3 (11746129_a_at) / RFU IL23R (11737362_x_at) / Fold change /veh IL23R (11737362_x_at) / RFU TMEM51 (11727254_a_at) / Fold change /veh TMEM51 (11727254_a_at) / RFU PIWIL2 (11732686_x_at) / Fold change /veh PIWIL2 (11732686_x_at) / RFU ORM1 (11744905_x_at) / Fold change /veh ORM1 (11744905_x_at) / RFU CCDC152 (11743942_at) / Fold change /veh CCDC152 (11743942_at) / RFU ECM1 (11717891_a_at) / Fold change /veh ECM1 (11717891_a_at) / RFU IL23R (11748794_a_at) / Fold change /veh IL23R (11748794_a_at) / RFU TNFAIP8L3 (11732012_x_at) / Fold change /veh TNFAIP8L3 (11732012_x_at) / RFU MBOAT4 (11741988_at) / Fold change /veh MBOAT4 (11741988_at) / RFU 11764193_at / Fold change /veh 11764193_at / RFU TMEM53 (11763286_at) / Fold change /veh TMEM53 (11763286_at) / RFU MAGEB2 (11727129_at) / Fold change /veh MAGEB2 (11727129_at) / RFU TMEM200A (11744735_a_at) / Fold change /veh TMEM200A (11744735_a_at) / RFU CCDC152 (11751479_a_at) / Fold change /veh CCDC152 (11751479_a_at) / RFU FAM211A (11726209_a_at) / Fold change /veh FAM211A (11726209_a_at) / RFU RGS16 (11746705_a_at) / Fold change /veh RGS16 (11746705_a_at) / RFU VCAN (11755009_s_at) / Fold change /veh VCAN (11755009_s_at) / RFU RHOB (11743442_s_at) / Fold change /veh RHOB (11743442_s_at) / RFU RGS16 (11720943_a_at) / Fold change /veh RGS16 (11720943_a_at) / RFU RGS16 (11720944_at) / Fold change /veh RGS16 (11720944_at) / RFU, VPS4B / Fold change vs veh, VPS4B / RFU, CREB1 / Fold change vs veh, CREB1 / RFU, DNAJC13 / Fold change vs veh, DNAJC13 / RFU, GNAQ / Fold change vs veh, GNAQ / RFU, CDK5R1 / Fold change vs veh, CDK5R1 / RFU, ZRANB3 / Fold change vs veh, ZRANB3 / RFU, CUL4A / Fold change vs veh, CUL4A / RFU, CCNY / Fold change vs veh, CCNY / RFU, UFL1 / Fold change vs veh, UFL1 / RFU, COG3 / Fold change vs veh, COG3 / RFU, DIAPH2 / Fold change vs veh, DIAPH2 / RFU, SKA2 / Fold change vs veh, SKA2 / RFU, AFF3 / Fold change vs veh, AFF3 / RFU, LMF1 / Fold change vs veh, LMF1 / RFU, IPO11 / Fold change vs veh, IPO11 / RFU, DFFB / Fold change vs veh, DFFB / RFU, FOXP1 / Fold change vs veh, FOXP1 / RFU, CARD8 / Fold change vs veh, CARD8 / RFU, STRN3 / Fold change vs veh, STRN3 / RFU, ADK / Fold change vs veh, ADK / RFU, RASSF2 / Fold change vs veh, RASSF2 / RFU, WIPF1 / Fold change vs veh, WIPF1 / RFU, LARP1B / Fold change vs veh, LARP1B / RFU, RASA1 / Fold change vs veh, RASA1 / RFU, RB1 / Fold change vs veh, RB1 / RFU, PPFIA1 / Fold change vs veh, PPFIA1 / RFU, MAT2A / Fold change vs veh, MAT2A / RFU, CCT5 / Fold change vs veh, CCT5 / RFU, WDR92 / Fold change vs veh, WDR92 / RFU, CUX1 / Fold change vs veh, CUX1 / RFU, TTC7A / Fold change vs veh, TTC7A / RFU, TMEM135 / Fold change vs veh, TMEM135 / RFU, DEPTOR / Fold change vs veh, DEPTOR / RFU, CPM / Fold change vs veh, CPM / RFU, DNAJB6 / Fold change vs veh, DNAJB6 / RFU, CACNA2D3 / Fold change vs veh, CACNA2D3 / RFU, DTX4 / Fold change vs veh, DTX4 / RFU, TFCP2 / Fold change vs veh, TFCP2 / RFU, GMCL1 /// GMCL1P1 / Fold change vs veh, GMCL1 /// GMCL1P1 / RFU, AEBP2 / Fold change vs veh, AEBP2 / RFU, SNHG1 /// SNORD22 /// SNORD25 /// SNORD26 /// SNORD27 /// SNORD28 /// SNORD29 /// SNORD31 / Fold change vs veh, SNHG1 /// SNORD22 /// SNORD25 /// SNORD26 /// SNORD27 /// SNORD28 /// SNORD29 /// SNORD31 / Fold change (Aza/veh), C12orf56 (ProbeSet 11735607_a_at) / Fold change (ACY-1035/veh), C12orf56 (ProbeSet 11735607_a_at) / Fold change (Aza/veh), FGFR1OP (ProbeSet 11751329_s_at) / Fold change (ACY-1035/veh), FGFR1OP (ProbeSet 11751329_s_at) / Fold change (Aza/veh), VPS36 (ProbeSet 11739960_a_at) / Fold change (ACY-1035/veh), VPS36 (ProbeSet 11739960_a_at) / RFU SYPL1 (11715823_x_at) / Fold change /veh SYPL1 (11715823_x_at) / RFU IGFBP7 (11715501_s_at) / Fold change /veh IGFBP7 (11715501_s_at) / RFU REEP3 (11722064_at) / Fold change /veh REEP3 (11722064_at) / RFU IGLL1 (11728026_x_at) / Fold change /veh IGLL1 (11728026_x_at): dose or concentration left out as unconfirmed
# Details: MV-4-11 cells, 48 hours
smiles,measurement,value
Nc1ncn([C@@H]2O[C@H](CO)[C@@H](O)[C@H]2O)c(=O)n1 [azacitidine],Fold change /veh C5orf56 (11738088_a_at),0.98
